For test [1], the target named is T1, Axl (Homo sapiens, UniProt P30530).
T1 sequence (P30530 26-894): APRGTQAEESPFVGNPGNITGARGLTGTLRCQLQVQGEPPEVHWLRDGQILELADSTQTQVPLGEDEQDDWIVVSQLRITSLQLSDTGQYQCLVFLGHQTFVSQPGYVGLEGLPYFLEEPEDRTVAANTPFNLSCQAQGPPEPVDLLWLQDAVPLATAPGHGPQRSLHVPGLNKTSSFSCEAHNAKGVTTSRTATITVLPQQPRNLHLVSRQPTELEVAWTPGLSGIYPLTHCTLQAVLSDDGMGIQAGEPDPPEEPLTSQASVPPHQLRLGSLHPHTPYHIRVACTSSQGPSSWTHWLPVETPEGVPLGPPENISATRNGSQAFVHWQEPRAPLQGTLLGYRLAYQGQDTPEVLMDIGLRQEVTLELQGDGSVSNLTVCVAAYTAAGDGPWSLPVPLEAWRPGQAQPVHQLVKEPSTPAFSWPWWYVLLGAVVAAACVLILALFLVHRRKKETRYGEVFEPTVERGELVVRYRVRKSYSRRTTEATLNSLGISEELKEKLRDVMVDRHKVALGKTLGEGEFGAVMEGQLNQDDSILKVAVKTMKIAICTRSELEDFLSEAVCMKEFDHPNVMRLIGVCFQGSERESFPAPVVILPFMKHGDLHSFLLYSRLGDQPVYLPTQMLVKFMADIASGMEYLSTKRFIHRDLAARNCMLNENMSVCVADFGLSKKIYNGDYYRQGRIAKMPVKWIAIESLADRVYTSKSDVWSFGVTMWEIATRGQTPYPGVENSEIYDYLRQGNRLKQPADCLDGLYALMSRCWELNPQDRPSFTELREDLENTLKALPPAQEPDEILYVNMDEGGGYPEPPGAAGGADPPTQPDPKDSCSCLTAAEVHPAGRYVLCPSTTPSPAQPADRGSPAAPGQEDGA
Put plainly: HTRF KinEASE-TK biochemical potency assay, AXL. Also noted: purchased Invitrogen. The settings on record: 5 nM AXL, 700 μM ATP, 800 nM TK Substrate-biotin. The procedure, abridged:
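Enzyme (final 5 nM AXL; 1 nM TYRO3 or MER) plus compound, 1 h RT → add biotinylated TK substrate (800 nM final) and ATP (700 μM final) → 2 h RT → stop into HTRF detection mix → read 665/620 nm. Activity normalised to DMSO and pre-stopped blanks.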

Test [2] deals with T1, Axl. Put plainly: Axl NanoBRET intracellular kinase assay (intracellular binding, Cell Binding). Also noted: host or cells: HEK-293. The settings on record: HEK-293 cells transfected with Axl-NanoLuc fusion vector; 0.35 μM K-5 NanoBRET tracer. A digest of the protocol: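 BRET ratio (610 nm/450 nm) decrease from K-5 tracer displacement gave binding; IC50 by 4-parameter non-linear regression of percent activity. Live HEK-293 cells expressed transiently transfected Axl-NanoLuc. Compound 1 h, then 0.35 μM tracer 2 h, both 37 °C, 5% CO2.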
For orientation: In BRET a luciferase serves as donor, and the signal depends on an acceptor being close.

pIC50: −log10 of the molar value.

On to `CC1(N[C@H]2CCOC2)CCc2ccc(-c3cnc4[nH]nc(-c5ccc(S(=O)(=O)C6CC6)cc5)c4c3)cc2CC1` (stereo partly drawn) [Example 115, (3S)-N-(2-{3-[4-(Cyclopropanesulfonyl)phenyl]-1H-pyrazolo[3,4-b]pyridin-5-yl}-7-methyl-6,7,8,9-tetrahydro-5H-benzo[7]annulen-7-yl)oxolan-3-amine], for which the pIC50 (usually −log10 of the IC50, conventionally taken in molar units) in test [1] is above 7.00; in test [2], 6.00 to 7.00.
For `C[C@@H]1CCCN1C1(C)CCc2ccc(-c3cnc4[nH]nc(-c5ccc(C(=O)N[C@H]6CCOC6)cc5)c4c3)cc2CC1` (stereo partly drawn) [Example 117, 4-(5-{7-Methyl-7-[(2R)-2-methylpyrrolidin-1-yl]-6,7,8,9-tetrahydro-5H-benzo[7]annulen-2-yl}-1H-pyrazolo[3,4-b]pyridin-3-yl)-N-[(3S)-oxolan-3-yl]benzamide], the negative logarithm of the IC50 (pIC50) in test [1] and in test [2] was above 7.00 throughout.
`C[C@@H]1CCCN1C1(C)CCc2ccc(-c3cnc4[nH]nc(-c5ccc(C(=O)N6CCCC6)cc5)c4c3)cc2CC1` (stereo partly drawn) [Example 118, (2R)-2-Methyl-1-(7-methyl-2-{3-[4-(pyrrolidine-1-carbonyl)phenyl]-1H-pyrazolo[3,4-b]pyridin-5-yl}-6,7,8,9-tetrahydro-5H-benzo[7]annulen-7-yl)pyrrolidine]: the pIC50 in test [1] and in test [2] was above 7.00 throughout.
As to `Cc1cc(-c2n[nH]c3ncc(-c4ccc5c(c4)CCN(C4CC4)CC5)cc23)ccc1C(=O)N1CCNCC1` [Example 119, 3-Cyclopropyl-7-{3-[3-methyl-4-(piperazine-1-carbonyl)phenyl]-1H-pyrazolo[3,4-b]pyridin-5-yl}-2,3,4,5-tetrahydro-1H-3-benzazepine], the pIC50 in test [1] was above 7.00; in test [2], 6.00 to 7.00.
On the same counts, the results for `CC1(N2CCc3ccc(-c4cnc5[nH]nc(-c6ccc(S(=O)(=O)C7CC7)cc6)c5c4)cc3CC2)CCCC1` [Example 120, 7-{3-[4-(Cyclopropanesulfonyl)phenyl]-1H-pyrazolo[3,4-b]pyridin-5-yl}-3-(1-methylcyclopentyl)-2,3,4,5-tetrahydro-1H-3-benzazepine] are above 7.00 and 6.00 to 7.00.
Take `O=C1OCCN1c1ccc(-c2n[nH]c3ncc(-c4ccc5c(c4)CC[C@@H](N4C6COCC4C6)CC5)cc23)cc1` [Example 121, 3-(4-{5-[(7S)-7-{3-oxa-6-azabicyclo[3.1.1]heptan-6-yl}-6,7,8,9-tetrahydro-5H-benzo[7]annulen-2-yl]-2H-pyrazolo[3,4-b]pyridin-3-yl}phenyl)-1,3-oxazolidin-2-one]: the pIC50 in test [1] and in test [2] was above 7.00 each time.
Regarding `O=C1CCCN1c1ccc(-c2n[nH]c3ncc(-c4ccc5c(c4)CC[C@@H](N4C6COCC4C6)CC5)cc23)cc1` [Example 122, 1-(4-{5-[(7S)-7-{3-oxa-6-azabicyclo[3.1.1]heptan-6-yl}-6,7,8,9-tetrahydro-5H-benzo[7]annulen-2-yl]-2H-pyrazolo[3,4-b]pyridin-3-yl}phenyl)pyrrolidin-2-one], the pIC50 in test [1] and in test [2] was above 7.00 each time.
With `COCCOc1ccc(-c2n[nH]c3ncc(-c4ccc5c(c4)CC[C@@H](N4C6COCC4C6)CC5)cc23)cc1` [Example 123, 6-[(7S)-2-{3-[4-(2-methoxyethoxy)phenyl]-2H-pyrazolo[3,4-b]pyridin-5-yl}-6,7,8,9-tetrahydro-5H-benzo[7]annulen-7-yl]-3-oxa-6-azabicyclo[3.1.1]heptane], the negative logarithm of the IC50 (pIC50) in test [1] and in test [2] was above 7.00 throughout.
Take `CC(C)(C)S(=O)(=O)c1ccc(-c2n[nH]c3ncc(-c4ccc5c(c4)CC[C@@H](N4C6COCC4C6)CC5)cc23)cc1` [Example 124, 6-[(7S)-2-{3-[4-(2-methylpropane-2-sulfonyl)phenyl]-2H-pyrazolo[3,4-b]pyridin-5-yl}-6,7,8,9-tetrahydro-5H-benzo[7]annulen-7-yl]-3-oxa-6-azabicyclo[3.1.1]heptane]: the pIC50 in test [1] and in test [2] was above 7.00 in each case.

The record behind these values is patent publication US20240246967A1, “AXL COMPOUNDS” (ARCUS BIOSCIENCES, INC., priority 2021, published 2024).
